Assay results: publication PMC7413254 (Nature Communications, 2020)
Where two headings read alike, the source gives them in different places.

Key:
PfCRT^3D7 [1] = molecular target: T1, PfCRT^3D7 (Plasmodium falciparum, UniProt Q8IBZ9); assay: cell-based; details: mean ± SEM, n = 5, SEM
Protocol: (§1) The characterisation of [^3H]VF-6 transport via 23 different field and laboratory-derived isoforms of PfCRT was undertaken with oocytes two days post-cRNA-injection (Figs. 3a–j, 4; Supplementary Fig. 2). The oocytes were injected with 25 nL of ND96 buffer (pH 5.5) supplemented with [^3H]VF-6 and unlabelled VF-6 to achieve estimated intracellular concentrations of 1.4 and 200 μM, respectively. Ten oocytes that had resealed at the injection site were transferred to a 5 mL polystyrene round bottom tube (In Vitro Technologies) and washed with 3.5 mL of ND96 buffer before being transferred to separate wells of a white 96-well plate (PerkinElmer). This treatment served to establish the amount of radioactivity within the oocytes immediately prior to the commencement of the transport assay. Another 10 resealed oocytes were transferred to a 5 mL tube and washed with 3.5 mL of ND96 buffer. […] The assay was terminated by removing the reaction buffer with a pipette and washing the oocytes twice with 3.5 mL of ice-cold ND96 buffer. Each oocyte was transferred to a separate well of a white 96-well plate. The oocytes were lysed by the addition of 20 μL of 10% (w/v) SDS and overnight incubation at room temperature. The lysed oocyte was then combined with 150 μL of MicroScint-40 microscintillant (PerkinElmer), the plate covered with a TopSeal-A (PerkinElmer), and the radioactivity measured with a MicroBeta^2 microplate liquid scintillation analyser (PerkinElmer). VF-6 transport was calculated by subtracting the amount of radioactivity (measured in counts per minute) present within the oocytes at the end of the incubation from that measured in the oocytes sampled immediately before the commencement of the assay. The pH-dependence of transport (Fig. 3c) was determined by injecting the oocytes with [^3H]VF-6 suspended in 25 nL ND96 buffer adjusted to pH 5.0, 5.5, 6.0 or 7.0, which corresponded to the injection of 2.5–250 fmol of H^+. The dependence of [^3H]VF-6 transport on Na^+ or Cl^− was examined by injecting the oocytes with [^3H]VF-6 suspended in the control ND96 buffer (pH 5.5) or a version of this buffer that lacked either Na^+ or Cl^− (Supplementary Fig. 2). […] The dependence of peptide transport on Ca^2+ was determined by injecting the oocytes with [^3H]VF-6 suspended in ND96 buffers that contained different concentrations of Ca^2+ (0–5 mM; Supplementary Fig. 2). […] The dependence of PfCRT-mediated transport on the membrane potential was examined by using (1) Na^+ ionophore III in conjunction with the Na^+ gradients listed in Supplementary Data 7 and (2) Cl^− ionophore III in conjunction with the Cl^− gradients listed in Supplementary Data 7 to clamp the membrane potential of the oocyte from −80 to +80 mV. […] The kinetic parameters for VF-6 transport via different isoforms of PfCRT (Figs. 3e and 4a) were determined in SigmaPlot Windows Version 11.0 by a least-squares fit of the Michaelis–Menten equation to the data.
(§2) A subset of assays measured the ability of solutes known to interact with PfCRT to either cis-inhibit, trans-inhibit or trans-stimulate [^3H]VF-6 transport. These experiments involved adding these solutes to either the cis- or trans-side of the membrane relative to [^3H]VF-6. […] At least five independent experiments were performed (on different days and using oocytes from different frogs), and within each experiment measurements were made from ten oocytes per treatment.

PfCRT^Dd2 [2] = molecular target: T2, PfCRT^Dd2 (Plasmodium falciparum, UniProt Q9N623, A220S/I356T/K76T/M74I/N326S/N75E/Q271E/R371I); assay: cell-based; details: mean ± SEM, n = 5, SEM
Protocol: as §1, §2

PfCRT^Ecu1110 [3] = molecular target: T3, PfCRT^Ecu1110 (Plasmodium falciparum, UniProt Q9N623, A220S/I356L/K76T/N326D); assay: cell-based; details: mean ± SEM, n = 5, SEM
Protocol: as §1, §2

PfCRT^Dd2 [4] = molecular target: T2, PfCRT^Dd2; assay: [3H]CQ uptake into Xenopus oocytes, cis-inhibition by unlabelled solute; assay type: cell-based; details: PfCRTDd2 oocytes, background [3H]CQ accumulation subtracted, normalised to oocyte type control
How it was run: (§3)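 Oocytes expressing PfCRT isoforms, or non-expressing controls, were incubated 1.5 h at 27.5 °C in ND96 buffer pH 5.5 (96 mM NaCl, 2 mM KCl, 1 mM MgCl2, 1.8 mM CaCl2, 10 mM MES, 10 mM Tris-base), measuring uptake from acidic medium into cytosol. Oocytes were washed ice-cold, SDS-lysed and counted by scintillation.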

PfCRT^Ecu1110 [5] = molecular target: T3, PfCRT^Ecu1110; assay: as above; assay type: cell-based; details: for PfCRT-mediated [3H]CQ transport, cis-inhibition (% PfCRTEcu1110 control): PfCRTEcu1110 oocytes, background [3H]CQ accumulation subtracted, normalised to oocyte type control; for [3H]CQ transport (% PfCRTEcu1110 control), cis-inhibition, PfCRTEcu1110: PfCRT-mediated component (background subtracted), sheet title says normalised to PfCRTDd2 control, mean ± SEM, SEM
How it was run: as §3

PfCRT^3D7 [6] = molecular target: T1, PfCRT^3D7; assay: cell-based; assay type: cell-based; details: PfCRT3D7 oocytes, normalised to oocyte type control
How it was run: (§4)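 Transport measured in Xenopus oocytes expressing the transporters, 1.5 h at 27.5 °C in ND96 pH 5.5 unless noted. For trans-stimulation, VF-6 injected in 25 nL ND96 at pH 5.0–7.0 or Na^+-free (choline) buffer; intracellular levels based on ~400 nL oocyte volume. Ten oocytes per treatment, ≥4 experiments.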

PfCRT^Dd2 [7] = molecular target: T2, PfCRT^Dd2; assay: cell-based; assay type: cell-based; details: for PfCRT-mediated [3H]CQ transport, trans-stimulation (% PfCRTDd2 control): PfCRTDd2 oocytes, normalised to oocyte type control; for [3H]CQ transport (% PfCRTDd2 control), trans-stimulation, PfCRTDd2: PfCRT-mediated component (background subtracted), mean ± SEM, SEM
How it was run: as §4

PfCRT^Ecu1110 [8] = molecular target: T3, PfCRT^Ecu1110; assay: cell-based; assay type: cell-based; details: for PfCRT-mediated [3H]CQ transport, trans-stimulation (% PfCRTEcu1110 control): PfCRTEcu1110 oocytes, normalised to oocyte type control; for [3H]CQ transport (% PfCRTDd2 control), trans-stimulation, PfCRTEcu1110: PfCRT-mediated component (background subtracted), sheet title says normalised to PfCRTDd2 control, mean ± SEM, SEM
How it was run: as §4

PfCRT = assay: Potential co-substrates tested for influx of VF-6 via PfCRT into the oocyte; assay type: cell-based, Plasmodium falciparum; set-up: key: X: Compounds that have been tested as potential co-substrates but are not required for influx of VF-6 via PfCRT into the oocyte
[9] = [test solute]i = 5 mM (intracellular)
[10] = [test solute]i = 45 mM (intracellular; 30 mM for some solutes due to solubility)
[11] = [test solute]i = 5 mM (injected)
[12] = [test solute]i = 45 mM (30 mM for some solutes due to solubility)

T1 sequence (Q8IBZ9 59-398): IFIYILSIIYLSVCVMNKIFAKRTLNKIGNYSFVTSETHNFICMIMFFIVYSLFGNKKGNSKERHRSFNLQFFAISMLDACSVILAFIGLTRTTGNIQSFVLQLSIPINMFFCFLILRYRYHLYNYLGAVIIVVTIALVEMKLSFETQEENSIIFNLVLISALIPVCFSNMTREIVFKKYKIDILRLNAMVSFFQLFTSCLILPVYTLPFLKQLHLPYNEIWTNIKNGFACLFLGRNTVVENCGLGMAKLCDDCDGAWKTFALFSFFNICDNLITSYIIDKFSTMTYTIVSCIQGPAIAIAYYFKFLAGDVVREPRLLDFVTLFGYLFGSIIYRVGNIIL
T2 sequence (Q9N623 whole entry A220S/I356T/K76T/M74I/N326S/N75E/Q271E/R371I): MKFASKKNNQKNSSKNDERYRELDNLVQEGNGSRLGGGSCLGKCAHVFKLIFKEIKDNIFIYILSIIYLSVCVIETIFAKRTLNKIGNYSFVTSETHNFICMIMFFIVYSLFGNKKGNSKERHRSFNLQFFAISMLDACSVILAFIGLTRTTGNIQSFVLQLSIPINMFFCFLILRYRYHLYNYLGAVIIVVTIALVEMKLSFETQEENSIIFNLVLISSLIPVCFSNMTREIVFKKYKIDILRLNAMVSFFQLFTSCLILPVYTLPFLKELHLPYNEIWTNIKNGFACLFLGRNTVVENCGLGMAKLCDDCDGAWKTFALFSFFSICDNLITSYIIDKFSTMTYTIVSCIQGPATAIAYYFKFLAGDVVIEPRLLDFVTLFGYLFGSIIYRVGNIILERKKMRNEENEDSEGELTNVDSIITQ
T3 sequence (Q9N623 whole entry A220S/I356L/K76T/N326D): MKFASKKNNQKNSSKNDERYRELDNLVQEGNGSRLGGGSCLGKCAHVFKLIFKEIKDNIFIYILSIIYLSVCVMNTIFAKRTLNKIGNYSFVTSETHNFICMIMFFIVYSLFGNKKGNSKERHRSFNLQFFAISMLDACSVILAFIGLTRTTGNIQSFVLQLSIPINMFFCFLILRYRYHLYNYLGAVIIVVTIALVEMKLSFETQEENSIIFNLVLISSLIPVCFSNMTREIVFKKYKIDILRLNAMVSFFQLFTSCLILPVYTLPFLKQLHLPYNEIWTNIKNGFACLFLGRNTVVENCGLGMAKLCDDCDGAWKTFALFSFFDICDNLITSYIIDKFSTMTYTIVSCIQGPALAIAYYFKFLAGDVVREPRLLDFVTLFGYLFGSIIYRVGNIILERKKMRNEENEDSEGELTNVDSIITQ

## CN(C)CCC(c1ccc(Cl)cc1)c1ccccn1 (stereo not shown) [CP, chlorpheniramine, reference compound]
PfCRT^3D7 [1]; drug on opposite side to [3H]VF-6, read-out: Trans-inhibition IC50 of [3H]VF-6 transport, PfCRT3D7
  IC50: 12 ± 0.7 µM
PfCRT^3D7 [1]; drug on same side as [3H]VF-6, read-out: Cis-inhibition IC50 of [3H]VF-6 transport, PfCRT3D7
  IC50: 9.8 ± 0.5 µM
PfCRT^Dd2 [2]; Cis-inhibition IC50 of [3H]VF-6 transport, PfCRTDd2, drug on same side as [3H]VF-6
  IC50: 5 ± 1.1 µM
PfCRT^Dd2 [2]; Trans-inhibition IC50 of [3H]VF-6 transport, PfCRTDd2, drug on opposite side to [3H]VF-6
  IC50: 8.8 ± 0.3 µM
PfCRT^Ecu1110 [3]; Cis-inhibition IC50 of [3H]VF-6 transport, PfCRTEcu1110, drug on same side as [3H]VF-6
  IC50: 6.2 ± 0.3 µM
PfCRT^Ecu1110 [3]; Trans-inhibition IC50 of [3H]VF-6 transport, PfCRTEcu1110, drug on opposite side to [3H]VF-6
  IC50: 7.2 ± 0.2 µM

## DPVNF [DF-5]
PfCRT^Dd2 [4]; [test solute] = 0.5 mM
  PfCRT-mediated [3H]CQ transport, cis-inhibition (% PfCRTDd2 control): 38 ± 3.1 % PfCRTDd2 control
PfCRT^Dd2 [4]; [test solute] = 1 mM
  PfCRT-mediated [3H]CQ transport, cis-inhibition (% PfCRTDd2 control): 27 ± 0.9 % PfCRTDd2 control
PfCRT^Dd2 [4]; [test solute] = 2 mM
  PfCRT-mediated [3H]CQ transport, cis-inhibition (% PfCRTDd2 control): 15 ± 0.5 % PfCRTDd2 control
PfCRT^Ecu1110 [5]; [test solute] = 0.5 mM
  PfCRT-mediated [3H]CQ transport, cis-inhibition (% PfCRTEcu1110 control): 40 ± 2.1 % PfCRTEcu1110 control
PfCRT^Ecu1110 [5]; [test solute] = 1 mM
  PfCRT-mediated [3H]CQ transport, cis-inhibition (% PfCRTEcu1110 control): 32 ± 1.6 % PfCRTEcu1110 control
PfCRT^Ecu1110 [5]; [test solute] = 2 mM
  PfCRT-mediated [3H]CQ transport, cis-inhibition (% PfCRTEcu1110 control): 21 ± 1.0 % PfCRTEcu1110 control
  [3H]CQ transport (% PfCRTEcu1110 control), cis-inhibition, PfCRTEcu1110: 7.0 ± 0.1 % PfCRTEcu1110 control
PfCRT^3D7 [6]; [9]
  PfCRT-mediated [3H]CQ transport, trans-stimulation (% PfCRT3D7 control): 128 ± 3.1 % PfCRT3D7 control
PfCRT^3D7 [6]; [10]
  PfCRT-mediated [3H]CQ transport, trans-stimulation (% PfCRT3D7 control): 158 ± 4.2 % PfCRT3D7 control
PfCRT^Dd2 [7]; [9]
  PfCRT-mediated [3H]CQ transport, trans-stimulation (% PfCRTDd2 control): 101 ± 3.5 % PfCRTDd2 control
PfCRT^Dd2 [7]; [10]
  PfCRT-mediated [3H]CQ transport, trans-stimulation (% PfCRTDd2 control): 113 ± 1.2 % PfCRTDd2 control
PfCRT^Dd2 [7]; [11]
  [3H]CQ transport (% PfCRTDd2 control), trans-stimulation, PfCRTDd2: 101 ± 3.5 % PfCRTDd2 control
PfCRT^Dd2 [7]; [12]
  [3H]CQ transport (% PfCRTDd2 control), trans-stimulation, PfCRTDd2: 113 ± 1.2 % PfCRTDd2 control
PfCRT^Ecu1110 [8]; [9]
  PfCRT-mediated [3H]CQ transport, trans-stimulation (% PfCRTEcu1110 control): 120 ± 2.4 % PfCRTEcu1110 control
PfCRT^Ecu1110 [8]; [10]
  PfCRT-mediated [3H]CQ transport, trans-stimulation (% PfCRTEcu1110 control): 128 ± 2.9 % PfCRTEcu1110 control
PfCRT^Ecu1110 [8]; [11]
  [3H]CQ transport (% PfCRTDd2 control), trans-stimulation, PfCRTEcu1110: 36 ± 1.3 % PfCRTEcu1110 control
PfCRT^Ecu1110 [8]; [12]
  [3H]CQ transport (% PfCRTDd2 control), trans-stimulation, PfCRTEcu1110: 39 ± 1.8 % PfCRTEcu1110 control
PfCRT
  Tested as potential co-substrate but not required for influx of VF-6 via PfCRT into the oocyte: X

## VDPVN [VN-5]
PfCRT^Dd2 [4]; [test solute] = 0.5 mM
  PfCRT-mediated [3H]CQ transport, cis-inhibition (% PfCRTDd2 control): 42 ± 2.7 % PfCRTDd2 control
PfCRT^Dd2 [4]; [test solute] = 1 mM
  PfCRT-mediated [3H]CQ transport, cis-inhibition (% PfCRTDd2 control): 30 ± 3.0 % PfCRTDd2 control
PfCRT^Dd2 [4]; [test solute] = 2 mM
  PfCRT-mediated [3H]CQ transport, cis-inhibition (% PfCRTDd2 control): 19 ± 0.3 % PfCRTDd2 control
PfCRT^Ecu1110 [5]; [test solute] = 0.5 mM
  PfCRT-mediated [3H]CQ transport, cis-inhibition (% PfCRTEcu1110 control): 52 ± 1.8 % PfCRTEcu1110 control
  [3H]CQ transport (% PfCRTEcu1110 control), cis-inhibition, PfCRTEcu1110: 16 ± 0.4 % PfCRTEcu1110 control
PfCRT^Ecu1110 [5]; [test solute] = 1 mM
  PfCRT-mediated [3H]CQ transport, cis-inhibition (% PfCRTEcu1110 control): 38 ± 2.6 % PfCRTEcu1110 control
PfCRT^Ecu1110 [5]; [test solute] = 2 mM
  PfCRT-mediated [3H]CQ transport, cis-inhibition (% PfCRTEcu1110 control): 27 ± 0.5 % PfCRTEcu1110 control
  [3H]CQ transport (% PfCRTEcu1110 control), cis-inhibition, PfCRTEcu1110: 9.0 ± 0.2 % PfCRTEcu1110 control
PfCRT^3D7 [6]; [9]
  PfCRT-mediated [3H]CQ transport, trans-stimulation (% PfCRT3D7 control): 131 ± 4.6 % PfCRT3D7 control
PfCRT^3D7 [6]; [10]
  PfCRT-mediated [3H]CQ transport, trans-stimulation (% PfCRT3D7 control): 181 ± 5.7 % PfCRT3D7 control
PfCRT^Dd2 [7]; [9]
  PfCRT-mediated [3H]CQ transport, trans-stimulation (% PfCRTDd2 control): 101 ± 3.5 % PfCRTDd2 control
PfCRT^Dd2 [7]; [10]
  PfCRT-mediated [3H]CQ transport, trans-stimulation (% PfCRTDd2 control): 112 ± 1.4 % PfCRTDd2 control
PfCRT^Dd2 [7]; [11]
  [3H]CQ transport (% PfCRTDd2 control), trans-stimulation, PfCRTDd2: 101 ± 3.5 % PfCRTDd2 control
PfCRT^Dd2 [7]; [12]
  [3H]CQ transport (% PfCRTDd2 control), trans-stimulation, PfCRTDd2: 112 ± 1.4 % PfCRTDd2 control
PfCRT^Ecu1110 [8]; [9]
  PfCRT-mediated [3H]CQ transport, trans-stimulation (% PfCRTEcu1110 control): 128 ± 3.6 % PfCRTEcu1110 control
PfCRT^Ecu1110 [8]; [10]
  PfCRT-mediated [3H]CQ transport, trans-stimulation (% PfCRTEcu1110 control): 136 ± 3.5 % PfCRTEcu1110 control
PfCRT^Ecu1110 [8]; [11]
  [3H]CQ transport (% PfCRTDd2 control), trans-stimulation, PfCRTEcu1110: 39 ± 1.5 % PfCRTEcu1110 control
PfCRT^Ecu1110 [8]; [12]
  [3H]CQ transport (% PfCRTDd2 control), trans-stimulation, PfCRTEcu1110: 41 ± 1.9 % PfCRTEcu1110 control
PfCRT
  Tested as potential co-substrate but not required for influx of VF-6 via PfCRT into the oocyte: X
